We go through 18 compounds from patent US8518912B2, “Phosphonic acid derivates and their use as P2Y12 receptor antagonists” (Actelion Pharmaceuticals Ltd., priority 2008, dated 2013).

Assay [1] concerns ADP induced platelet aggregation. As to the kind of experiment: Light transmission platelet aggregation assay. It is filed as cell-based. The settings on record: human platelet-rich plasma; ADP at 1-5 μM final concentration; 2 minutes preincubation at 37° C. Here is the method:
After obtaining informed consent, blood was obtained by vein puncture from healthy volunteers using a thrombin inhibitor as the anticoagulant. Platelet-rich plasma (PRP) was removed after centrifugation at 20° C. for 10 minutes at 200 g and allowed to equilibrate at 37° C. Part of the blood was centrifuged for 10 minutes at 5000 g to yield platelet poor plasma (PPP).
Light transmission platelet aggregation was carried out according to the method of Born & Cross (G. V. R. Born and M. J. Cross, J. Physiol. (1963), 168, 178-195) using a Chronolog lumiaggregometer with stirring (1000 rpm) at 37° C. PRP was placed into the cuvette and allowed to equilibrate at 37° C. for two minutes. In a first phase, the ADP concentration to give optimal extent of aggregation was determined for the PRP of each donor. In a second phase, PRP was incubated with inhibitors for 2 minutes at 37° C. prior to the addition of the agonist ADP at 1-5 μM final concentration. The change in light transmission, indicative of ongoing aggregation, was monitored during 5 minutes. The extent of platelet aggregation was calculated relative to light absorbance of PRP (not aggregated) and PPP (full aggregation).

In the next assay the target is T1, human P2Y12 receptor (Homo sapiens, UniProt Q9H244).
T1 construct: expressed in transfected cells; host or cells: Chinese Hamster Ovary (CHO) cells
T1 sequence (Q9H244 whole entry): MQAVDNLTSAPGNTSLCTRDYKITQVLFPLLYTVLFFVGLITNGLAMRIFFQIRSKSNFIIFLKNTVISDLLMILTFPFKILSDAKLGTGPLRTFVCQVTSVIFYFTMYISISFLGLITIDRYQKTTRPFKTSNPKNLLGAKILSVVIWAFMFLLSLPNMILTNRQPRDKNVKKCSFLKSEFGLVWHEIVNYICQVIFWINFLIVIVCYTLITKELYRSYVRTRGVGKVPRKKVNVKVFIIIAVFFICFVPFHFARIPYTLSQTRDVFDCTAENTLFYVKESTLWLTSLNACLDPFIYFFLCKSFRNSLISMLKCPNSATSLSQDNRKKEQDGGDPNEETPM
As to the kind of experiment: P2Y12 receptor binding assay. The conditions noted are these: CHO cells with recombinant human P2Y12 receptor; tritium-labeled 2-methyl-S-ADP; 2 hours at RT. As to the method:
Chinese Hamster Ovary (CHO) cells with recombinant expression of the human P2Y12 receptor were cultured in 24 well cell-culture plates. Cells were washed three times with binding buffer (50 mM Tris pH 7.4, 100 mM NaCl, […], 0.5% BSA). The cells were then incubated with 0.5 ml per well binding buffer containing tritium-labeled 2-methyl-thio-adenosine 5′-diphosphate (2-methyl-S-ADP) (between 100,000 and 300,000 dpm per well) and various concentrations of test compounds. After incubation at RT for 2 hours, cells were washed three times with binding buffer. Then, cells were solubilized by addition of 0.5 ml solubilization buffer (SDS, NaOH, EDTA). The content of each well was then transferred into beta-counter vials and 2.0 ml of Ultima Gold Scintillation liquid was added.

What is called IC50 is the concentration that inhibits the measured activity by half. Compound `CCOC(=O)N1CCN(C(=O)[C@H](CP(=O)(O)O)NC(=O)c2cc(N3CC[C@H](OC)C3)nc(-c3ccccc3)n2)CC1` [Example 1, 4-((R)-2-{[6-((S)-3-methoxy-pyrrolidin-1-yl)-2-phenyl-pyrimidine-4-carbonyl]-amino}-3-phosphono-propionyl)-piperazine-1-carboxylic acid ethyl ester] displayed a 50% inhibitory concentration (IC50) in assay [1] of 10 nM.
With `CCCCOC(=O)N1CCN(C(=O)[C@H](CP(=O)(O)O)NC(=O)c2cc(N3CC[C@H](OC)C3)nc(-c3ccccc3)n2)CC1` [Example 2, 4-((R)-2-{[6-((S)-3-methoxy-pyrrolidin-1-yl)-2-phenyl-pyrimidine-4-carbonyl]-amino}-3-phosphono-propionyl)-piperazine-1-carboxylic acid butyl ester], in assay [1], half-maximal inhibition (IC50) was put at 8 nM.
Compound `CCOC(=O)N1CCN(C(=O)[C@H](CCP(=O)(O)O)NC(=O)c2cc(N3CC[C@H](OC)C3)nc(-c3ccccc3)n2)CC1` [Example 4, 4-((S)-2-{[6-((S)-3-methoxy-pyrrolidin-1-yl)-2-phenyl-pyrimidine-4-carbonyl]-amino}-4-phosphono-butyryl)-piperazine-1-carboxylic acid ethyl ester] showed an IC50 in assay [1] of 21 nM.
Take `CCCCOC(=O)N1CCN(C(=O)C(NC(=O)c2cc(N3CC[C@H](OC)C3)nc(-c3ccccc3)n2)c2cccc(P(=O)(O)O)c2)CC1` (stereo partly drawn) [Example 71, 4-[2-{[6-((S)-3-Methoxy-pyrrolidin-1-yl)-2-phenyl-pyrimidine-4-carbonyl]-amino}-2-(3-phosphono-phenyl)-acetyl]-piperazine-1-carboxylic acid butyl ester]: the IC50 at human P2Y12 receptor stood at 4.5 nM.
On the same count and under the same terms, the figure for `CCCCOC(=O)N1CCN(C(=O)[C@H](CP(=O)(O)O)NC(=O)c2cc(N3CCN(C)CC3)nc(-c3ccccc3)n2)CC1` [Example 73, 4-((R)-2-{[6-(4-Methyl-piperazin-1-yl)-2-phenyl-pyrimidine-4-carbonyl]-amino}-3-phosphono-propionyl)-piperazine-1-carboxylic acid butyl ester] is 3 nM.
For the compound `CCCCOC(=O)N1CCN(C(=O)[C@H](CCP(=O)(NCC(=O)OCC)NCC(=O)OCC)NC(=O)c2cc(N3CC[C@H](OC)C3)nc(-c3ccccc3)n2)CC1` [Example 75, N,N′-Bis-(ethoxycarbonylmethyl)-3-{(S)-[6-((S)-3-methoxy-pyrrolidin-1-yl)-2-phenyl-pyrimidine-4-carbonyl]-amino}-4-oxo-4-(4-butoxy-carbonyl-piperazin-1-yl)-butyl-phosphonic acid diamide], on human P2Y12 receptor, the IC50 stood at 308 nM.
The same measure, in the same setting: to `CCCCOC(=O)N1CCN(C(=O)[C@H](CP(=O)(OCOC(=O)CCC)OCOC(=O)CCC)NC(=O)c2cc(N3CC[C@H](OC)C3)nc(-c3ccccc3)n2)CC1` [Example 78, 4-((R)-3-(Bis-butyryloxymethoxy-phosphoryl)-2-{[6-((S)-3-methoxy-pyrrolidin-1-yl)-2-phenyl-pyrimidine-4-carbonyl]-amino}-propionyl)-piperazine-1-carboxylic acid butyl ester] belongs 7 nM; to `CCCCOC(=O)N1CCN(C(=O)[C@H](CP(=O)(N[C@@H](Cc2ccccc2)C(=O)OC)N[C@@H](Cc2ccccc2)C(=O)OC)NC(=O)c2cc(N3CC[C@H](OC)C3)nc(-c3ccccc3)n2)CC1` [Example 87, N,N′-Bis-((S)-1-methoxycarbonyl-2-phenyl-ethyl)-2-{(R)-[6-((S)-3-methoxy-pyrrolidin-1-yl)-2-phenyl-pyrimidine-4-carbonyl]-amino}-3-oxo-3-(4-butoxy-carbonyl-piperazin-1-yl)-propyl-phosphonic acid diamide], 11 nM; to `CCCCOC(=O)N1CCN(C(=O)[C@H](CP(=O)(N[C@H](C(=O)OC)c2ccccc2)N[C@H](C(=O)OC)c2ccccc2)NC(=O)c2cc(N3CC[C@H](OC)C3)nc(-c3ccccc3)n2)CC1` [Example 88, N,N′-Bis-((S)-1-methoxycarbonyl-1-phenyl-methyl)-2-{(R)-[6-((S)-3-methoxy-pyrrolidin-1-yl)-2-phenyl-pyrimidine-4-carbonyl]-amino}-3-oxo-3-(4-butoxy-carbonyl-piperazin-1-yl)-propyl-phosphonic acid diamide], 22 nM.
Consider `CCCCOC(=O)N1CCN(C(=O)[C@H](CP(=O)(N[C@@H](C)C(=O)OC)N[C@@H](C)C(=O)OC)NC(=O)c2cc(N3CC[C@H](OC)C3)nc(-c3ccccc3)n2)CC1` [Example 89, N,N′-Bis-((S)-1-methoxycarbonyl-ethyl)-2-{(R)-[6-((S)-3-methoxy-pyrrolidin-1-yl)-2-phenyl-pyrimidine-4-carbonyl]-amino}-3-oxo-3-(4-butoxy-carbonyl-piperazin-1-yl)-propyl-phosphonic acid diamide], for which the IC50 on human P2Y12 receptor stood at 162 nM.
The same measure, in the same setting: the figure for `CCCCOC(=O)N1CCN(C(=O)[C@H](CP(=O)(NC(C)(C)C(=O)OCC)NC(C)(C)C(=O)OCC)NC(=O)c2cc(N3CC[C@H](OC)C3)nc(-c3ccccc3)n2)CC1` [Example 92, N,N′-Bis-(2-ethoxycarbonyl-prop-2-yl)-2-{(R)-[6-((S)-3-methoxy-pyrrolidin-1-yl)-2-phenyl-pyrimidine-4-carbonyl]-amino}-3-oxo-3-(4-butoxy-carbonyl-piperazin-1-yl)-propyl-phosphonic acid diamide] is 42 nM.
In the case of `CCCCOC(=O)N1CCN(C(=O)[C@H](CP(=O)(OCOC(=O)OC)OCOC(=O)OC)NC(=O)c2cc(N3CC[C@H](OC)C3)nc(-c3ccccc3)n2)CC1` [Example 93, 4-((R)-3-[Bis-(methoxycarbonyloxy-methoxy)-phosphoryl]-2-{[6-((S)-3-methoxy-pyrrolidin-1-yl)-2-phenyl-pyrimidine-4-carbonyl]-amino}-propionyl)-piperazine-1-carboxylic acid butyl ester], the IC50 on human P2Y12 receptor is 3.5 nM.
Take `CCCCOC(=O)N1CCN(C(=O)[C@H](CP(=O)(OCOC(=O)OC(C)C)OCOC(=O)OC(C)C)NC(=O)c2cc(N3CC[C@H](OC)C3)nc(-c3ccccc3)n2)CC1` [Example 95, 4-((R)-3-[Bis-(isopropoxycarbonyloxy-methoxy)-phosphoryl]-2-{[6-((S)-3-methoxy-pyrrolidin-1-yl)-2-phenyl-pyrimidine-4-carbonyl]-amino}-propionyl)-piperazine-1-carboxylic acid butyl ester]: on human P2Y12 receptor, the IC50 worked out at 34 nM.
For `CCCCOC(=O)N1CCN(C(=O)[C@H](CP(=O)(OCc2oc(=O)oc2C)OCc2oc(=O)oc2C)NC(=O)c2cc(N3CC[C@H](OC)C3)nc(-c3ccccc3)n2)CC1` [Example 101, 4-((R)-3-[Bis-(5-methyl-2-oxo-[1,3]dioxol-4-ylmethoxy)-phosphoryl]-2-{[6-((S)-3-methoxy-pyrrolidin-1-yl)-2-phenyl-pyrimidine-4-carbonyl]-amino}-propionyl)-piperazine-1-carboxylic acid butyl ester], at human P2Y12 receptor, the IC50 is 3.2 nM.
Same read-out and setting: the figure for `CCCCOC(=O)N1CCN(C(=O)[C@H](CP(=O)(O[C@@H](C)C(=O)OCC)O[C@@H](C)C(=O)OCC)NC(=O)c2cc(N3CC[C@H](OC)C3)nc(-c3ccccc3)n2)CC1` [Example 107, 4-((R)-3-[Bis-((S)-1-ethoxycarbonyl-ethoxy)-phosphoryl]-2-{[6-((S)-3-methoxy-pyrrolidin-1-yl)-2-phenyl-pyrimidine-4-carbonyl]-amino}-propionyl)-piperazine-1-carboxylic acid butyl ester] is 153 nM; for `CCCCOC(=O)N1CCN(C(=O)[C@H](CP2(=O)OCCCO2)NC(=O)c2cc(N3CC[C@H](OC)C3)nc(-c3ccccc3)n2)CC1` [Example 109, 4-[(R)-2-{[6-((S)-3-Methoxy-pyrrolidin-1-yl)-2-phenyl-pyrimidine-4-carbonyl]-amino}-3-(2-oxo-2λ^5-[1,3,2]dioxaphosphinan-2-yl)-propionyl]piperazine-1-carboxylic acid butyl ester] it is 208 nM; for `CCOC(=O)N1CCN(C(=O)[C@H](CP(=O)(OCOC(C)=O)OCOC(C)=O)NC(=O)c2cc(N3CC[C@H](OC)C3)nc(-c3ccccc3)n2)CC1` [Example 120, 4-((R)-3-[Bis-(acetoxy-methoxy)-phosphoryl]-2-{[6-((S)-3-methoxy-pyrrolidin-1-yl)-2-phenyl-pyrimidine-4-carbonyl]-amino}-propionyl)-piperazine-1-carboxylic acid ethyl ester] it is 7 nM.
Same read-out and setting: the figure for `CCCC(=O)OCOP(=O)(OCOC(=O)CCC)c1ccc(C[C@H](NC(=O)c2cc(N3CC[C@H](OC)C3)nc(-c3ccccc3)n2)C(=O)N2CCN(C(=O)OCC)CC2)cc1` [Example 124, 4-((S)-3-[4-(Bis-(butyryloxy-methoxy)-phosphoryl)-phenyl]-2-{[6-((S)-3-methoxy-pyrrolidin-1-yl)-2-phenyl-pyrimidine-4-carbonyl]-amino}-propionyl)-piperazine-1-carboxylic acid ethyl ester] is 36 nM.
